How the values were obtained:
[1] = system: mouse macrophage cell line (RAW264 cells); type: cell-based
[2] = system: mouse macrophage cell line (RAW264 cells); assay: Immunosuppressive action: inhibition of LPS-induced nitrogen monoxide production; type: cell-based; settings: LPS 100 ng/mL; 1,2-benzenediol 0 µg/mL to 10 µg/mL; FIG. 4
Procedure: A substance contained in Antheraea yamamai pupae and Bombyx mori pupae and having an immunosuppressive action on humans or animals having ate the insects was identified. Distilled water was added to a dry powder of Antheraea yamamai pupae and a dried powder of Bombyx mori pupae and the mixture was stirred and centrifugally separated to obtain the supernatant. Ethyl acetate was added to the resultant supernatant to cause liquid-liquid partition, and the resultant ethyl acetate layer was evaporated to dryness by distilling off the solvent with a rotary evaporator. Distilled water was added to the residue, which was added to a C18 solid phase column, and the flow-through fraction was recovered. The resultant flow-through fraction was eluted with high performance liquid chromatography (Develosil C30 column), and the immunosuppressive action of each eluted fraction obtained was measured. […]
Whether 1,2-benzenediol identified from Antheraea yamamai pupae and Bombyx mori pupae has an immunosuppressive action or not was evaluated by the production of nitrogen monoxide from a mouse macrophage cell line (RAW264 cells) as an indicator.

In the case of `Oc1ccccc1O` [1,2-benzenediol], the “growth inhibition of a mouse macrophage cell line (concentration at which confirmed)” value [1] was ≥ 1 µg/mL and the “inhibition of nitrogen monoxide production” value [2] was “inhibition of nitrogen monoxide production was observed depending on the concentration”.
